The experiment deals with GST-tagged Cn. In words: PEPperPRINT peptide microarray binding assay with GST-tagged Cn. The method, boiled down:
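Qualitative binding: peptides printed on a PEPperPRINT microarray were incubated overnight at 4 °C with 1 mg/ml GST-tagged Cn, then detected with Alexa-Fluor 647 anti-GST antibody. Log fluorescence was baseline-corrected, averaged over duplicate spots, Z-normalized and averaged across five repeats.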

Where [1] appears, read: GST-tagged Cn, max over the spots named in Location on chip.
[2] abbreviates: GST-tagged Cn, mean over the spots named in Location on chip.
[3] abbreviates: GST-tagged Cn, max over the chip spots listed under Location on chip.
[4] abbreviates: GST-tagged Cn, mean over the chip spots listed under Location on chip.
The mark [5] stands for this setting: GST-tagged Cn, max over the spots on the chip (two locations).
Setting [6] is: GST-tagged Cn, mean over the spots on the chip (two locations).
Setting [7] is: max over the chip locations listed for the peptide (two spots).
[8] abbreviates: mean over the chip locations listed for the peptide (two spots).
Setting [9] is: GST-tagged Cn, max over the chip locations.
[10] abbreviates: GST-tagged Cn, mean over the chip locations.
Setting [11] is: max over the spots listed under Location on chip.
Where [12] appears, read: mean over the spots listed under Location on chip.

With SSKSLPTFSFSSPVSH [SeqRBMlowT_6060], the “Chip Fluorescence (max)” value under setting [1] was determined as 1.331. The “Chip Fluorescence (mean)” value under setting [2] is reported as 0.1061.
With NGPSTPTKQGQPMAPS [SeqRBM_8324], the “Chip Fluorescence (max)” value under setting [3] was 0.6682. Further, under setting [4], the “Chip Fluorescence (mean)” value is listed as -0.9835.
For the sequence RAYINPFMQFNDGGSR [SeqRBM_9542], the “Chip Fluorescence (max)” value under setting [5] is listed as 1.138. The “Chip Fluorescence (mean)” value under setting [6] is reported as 0.2992.
As to TFWTNPQFRLKLEEVD [SeqRBMlowT_5628], the “Chip Fluorescence (max)” value under setting [7] is reported as 7.691. For the same sequence, the “Chip Fluorescence (mean)” value under setting [8] is 2.027.
On to STSSLPTFSFSSPASS [SeqRBMlowT_1605], for which, under setting [9], the “Chip Fluorescence (max)” value is 0.1343. In addition, the “Chip Fluorescence (mean)” value under setting [10] was -0.9005.
Take ADEAIPEITITPAELP [SeqRBMlowT_424]: the “Chip Fluorescence (max)” value under setting [11] came to 2.999. In addition, the “Chip Fluorescence (mean)” value under setting [12] was found to be 0.8947.
Regarding TNSHNPQVDLKIPQVR [SeqRBMlowT_6893], the “Chip Fluorescence (max)” value under setting [7] came to 5.271. The “Chip Fluorescence (mean)” value under setting [8] is recorded as 0.9753.
Consider SQMGKSRPWVSPERDN [SeqRBM_2721], for which, under setting [3], the “Chip Fluorescence (max)” value is given as 0.7358. Moreover, the “Chip Fluorescence (mean)” value under setting [4] is -0.1667.
For HVSSSSDITITPTQHR [SeqRBMlowT_2715], the “Chip Fluorescence (max)” value under setting [5] worked out at 1.1425. Under setting [6], the “Chip Fluorescence (mean)” value is -0.2145.
Regarding HVSSSPDITITPTQHR [SeqRBMlowT_702], under setting [5], the “Chip Fluorescence (max)” value is recorded as 1.204. For the same sequence, under setting [6], the “Chip Fluorescence (mean)” value is 0.3347.
In the same order, the values of “KSRALSKVVINEPLTI [SeqTRESK_Leptosomus_discolor]” are 1.0328 and -0.6623.
In the case of DTYGTASLARELPSPK [Seqshuffled_9914], under setting [1], the “Chip Fluorescence (max)” value is 1.867. In addition, the “Chip Fluorescence (mean)” value under setting [2] came out at 0.7201.
Regarding RNPGTALLELRGHKAS [SeqRBMlowT_6384], under setting [5], the “Chip Fluorescence (max)” value was 1.174. For the same sequence, under setting [6], the “Chip Fluorescence (mean)” value was determined as 0.5723.
In the same order, the values of KAYMNPYVQFIDGGRR [SeqRBMlowT_9255] are 1.252 and -0.2059.
SSAAPPAINIDFAPTN [SeqRBMlowT_5045]: the “Chip Fluorescence (max)” value under setting [9] is -0.1972. Further, the “Chip Fluorescence (mean)” value under setting [10] was -1.194.
For TFWANPQFRIKLEEPD [SeqRBMlowT_4612] the same measures were 0.1586 and -0.3624.
TFWTNPQYKVKLEDPD [SeqRBMlowT_2919]: the “Chip Fluorescence (max)” value under setting [3] worked out at 0.9474. Under setting [4], the “Chip Fluorescence (mean)” value was determined as 0.1413.
GGLRSDSVTMIDQGAY [SeqRBM_2699]: the “Chip Fluorescence (max)” value under setting [11] was determined as 2.739. The “Chip Fluorescence (mean)” value under setting [12] was 1.043.
For NICTSLTLVETDPTVY [Seqshuffled_9501] the same measures were 2.929 and 1.69.
As for GELAIKNMKPWDVGGY [SeqRBM_3830], the “Chip Fluorescence (max)” value under setting [11] came to 3.053. Moreover, the “Chip Fluorescence (mean)” value under setting [12] amounted to 1.402.
As to RNPGQALLQLSGHKAP [SeqRBM_8761], under setting [9], the “Chip Fluorescence (max)” value is listed as 0.09132. For the same sequence, the “Chip Fluorescence (mean)” value under setting [10] is given as -0.8885.
For AKDDPPKIQVHPPEED [SeqRBMlowT_9786], under setting [5], the “Chip Fluorescence (max)” value came to 1.098. Under setting [6], the “Chip Fluorescence (mean)” value is reported as -0.565.
For the sequence VSTDAPHSTRNDSGGP [SeqRBM_8532], the “Chip Fluorescence (max)” value under setting [5] is recorded as 0.9892. Besides, the “Chip Fluorescence (mean)” value under setting [6] is -0.732.
RNPGTPLLELKGHAAS [SeqRBMlowT_8729]: the “Chip Fluorescence (max)” value under setting [9] is listed as -0.2859. For the same sequence, under setting [10], the “Chip Fluorescence (mean)” value is given as -0.9089.
Regarding QHMSVPKIQVTPTEIE [SeqRBM_9954], the “Chip Fluorescence (max)” value under setting [7] was found to be 4.025. For the same sequence, the “Chip Fluorescence (mean)” value under setting [8] is 2.718.
As for GVQANPQFTIKAMMTN [SeqRBM_9281], the “Chip Fluorescence (max)” value under setting [9] is -0.1422. Further, the “Chip Fluorescence (mean)” value under setting [10] is listed as -2.366.
As for HSKSSPKLSISSPVHH [SeqRBMlowT_1628], the “Chip Fluorescence (max)” value under setting [11] is recorded as 3.1562. Besides, the “Chip Fluorescence (mean)” value under setting [12] is 1.038.
With TFWTNPQFKVKLTDPD [SeqRBMlowT_2929], the “Chip Fluorescence (max)” value under setting [9] is reported as -0.3202. The “Chip Fluorescence (mean)” value under setting [10] is listed as -2.672.
Consider NVPKGIRFRRTYLAIP [Seqshuffled_5577], for which the “Chip Fluorescence (max)” value under setting [3] was 0.7584. Moreover, the “Chip Fluorescence (mean)” value under setting [4] is -1.743.
For TFWTNPQFRVKLEEPD [SeqRBMlowT_201], the “Chip Fluorescence (max)” value under setting [3] is 0.5145. Moreover, the “Chip Fluorescence (mean)” value under setting [4] is on record as -0.7212.
Turning to ATSGTFPQTEGSHKKQ [SeqRBMlowT_5854], the “Chip Fluorescence (max)” value under setting [1] was determined as 1.785. The “Chip Fluorescence (mean)” value under setting [2] is -0.4136.
In the same order, the values of TFWTNPQFTITLEEPD [SeqRBMlowT_1494] are 1.659 and -0.5285.
In the same order, the values of STEIIATLFVQVANEY [Seqshuffled_9888] are 1.433 and -0.5855.
Regarding LKDEFPEVRLNIISSL [SeqRBMlowT_1023], the “Chip Fluorescence (max)” value under setting [11] came out at 2.696. Further, under setting [12], the “Chip Fluorescence (mean)” value turned out to be 0.6595.
As for KAYMNPYMQFIDGGRR [SeqRBMlowT_4720], under setting [5], the “Chip Fluorescence (max)” value is 1.204. The “Chip Fluorescence (mean)” value under setting [6] is on record as -0.1516.
Consider ADEAPPRITITPYELP [SeqRBMlowT_5415], for which, under setting [7], the “Chip Fluorescence (max)” value is reported as 3.784. The “Chip Fluorescence (mean)” value under setting [8] came out at 1.112.
Regarding SSLECPHVQVTVSGQR [SeqRBM_6881], under setting [1], the “Chip Fluorescence (max)” value turned out to be 1.51. Further, the “Chip Fluorescence (mean)” value under setting [2] turned out to be 0.9297.
In the case of GAWGLNKSGLFLINEV [Seqshuffled_9399], under setting [7], the “Chip Fluorescence (max)” value came out at 7.244. In addition, under setting [8], the “Chip Fluorescence (mean)” value is recorded as 0.4206.
KAYMCPYMDFQDGGRR [SeqRBM_4270]: under setting [11], the “Chip Fluorescence (max)” value came to 3.135. Further, under setting [12], the “Chip Fluorescence (mean)” value amounted to 0.405.
As for NWPETPSIVEQPPSSS [SeqRBM_881], the “Chip Fluorescence (max)” value under setting [9] came to 0.2051. For the same sequence, the “Chip Fluorescence (mean)” value under setting [10] was -1.045.
With FSNKASKARRMEPLSI [SeqRBM_824], the “Chip Fluorescence (max)” value under setting [5] came out at 1.106. The “Chip Fluorescence (mean)” value under setting [6] is -0.01462.
As to PKMAPPCINIDFAPTN [SeqRBMlowT_319], the “Chip Fluorescence (max)” value under setting [5] is listed as 1.2058. The “Chip Fluorescence (mean)” value under setting [6] was -0.8596.
For TFWTNPQYRVKLEEPD [SeqRBMlowT_2230] the same measures were 1.125 and -0.4829.
For RNPGQALLELKGHSAQ [SeqRBMlowT_7734] the same measures were 1.17 and -0.1022.
For TFWTNPQYKVKLEEED [SeqRBMlowT_252], under setting [5], the “Chip Fluorescence (max)” value was determined as 1.065. Besides, under setting [6], the “Chip Fluorescence (mean)” value came to 0.727.
Take “RQPGQALLELKGHAGA [SeqYPL247C_Erysiphe_pulchra]”: under setting [7], the “Chip Fluorescence (max)” value worked out at 4.952. For the same sequence, the “Chip Fluorescence (mean)” value under setting [8] is listed as 0.4575.
For HSKFIPKLSLQSPVHH [SeqRBMlowT_1695], the “Chip Fluorescence (max)” value under setting [5] stood at 1.29. The “Chip Fluorescence (mean)” value under setting [6] is -0.2065.
For SKLMCVTLAIGSLSTS [SeqRBM_2514] the same measures were 1.101 and -0.2904.

The values above are taken from paper PMC9928118, “Funneling modulatory peptide design with generative models: Discovery and characterization of disruptors of calcineurin protein-protein interactions” (PLOS Computational Biology, 2023).
